Experimental data as given in PubChem BioAssay (NCI).
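Results reflect a 48-hour exposure of cells in 96-well plates to compound at five concentrations. Here, GI50 denotes the concentration required for 50% inhibition of growth. TGI marks complete inhibition of growth.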

Columns and labels:
Assay in all cases: NCI tumour cell line growth inhibition, 48 h
MDA-MB-231 breast = system: MDA-MB-231 breast
SF-539 CNS = system: SF-539 CNS
T-47D breast = system: T-47D breast
LOX IMVI melanoma = system: LOX IMVI melanoma
CCRF-CEM leukemia = system: CCRF-CEM leukemia
SK-MEL-5 melanoma = system: SK-MEL-5 melanoma
A549 NSCLC = system: A549 NSCLC
NCI-H226 lung = system: NCI-H226 lung
SF-268 CNS = system: SF-268 CNS
KM12 colon = system: KM12 colon

| Structure (SMILES) | GI50 (MDA-MB-231 breast) [µM] | TGI (MDA-MB-231 breast) [µM] | GI50 (SF-539 CNS) [µM] | TGI (SF-539 CNS) [µM] | GI50 (T-47D breast) [µM] | TGI (T-47D breast) [µM] | GI50 (LOX IMVI melanoma) [µM] | TGI (LOX IMVI melanoma) [µM] | GI50 (CCRF-CEM leukemia) [µM] | TGI (CCRF-CEM leukemia) [µM] | GI50 (SK-MEL-5 melanoma) [µM] | TGI (SK-MEL-5 melanoma) [µM] | GI50 (A549 NSCLC) [µM] | TGI (A549 NSCLC) [µM] | GI50 (NCI-H226 lung) [µM] | TGI (NCI-H226 lung) [µM] | GI50 (SF-268 CNS) [µM] | TGI (SF-268 CNS) [µM] | GI50 (KM12 colon) [µM] | TGI (KM12 colon) [µM] |
| --- | --- | --- | --- | --- | --- | --- | --- | --- | --- | --- | --- | --- | --- | --- | --- | --- | --- | --- | --- | --- |
| Cc1cc2c(C(C)C)c(O)c(O)c(C=O)c2c(O)c1-c1c(C)cc2c(C(C)C)c(O)c(O)c(C=O)c2c1O (tested in a mixture with another compound) | 2.11 | 5.8 | 1.33 | 4.42 | 1.77 | 7.03 | 1.16 | 2.54 | 0.546 | 13.7 | 1.54 | 2.95 | 0.468 | 2.38 | 1.39 | 4.95 | 1.06 | 3.26 | 0.394 | 1.51 |
| C[C@@H]1CN2[C@H]3[C@@H]1CC[C@]31CCC(=O)O[C@]1(C)[C@@H]1CC[C@H]3CCC=C3[C@@H]12 | > 70 | > 70 | > 70 | > 70 | > 70 | > 70 | > 70 | > 70 | > 70 | > 70 | > 70 | > 70 | > 70 | > 70 | > 70 | > 70 | > 70 | > 70 | > 70 | > 70 |
| CC(=O)OCC(=O)C1(O)C(C)CC2C3C=C(C)C4=Cc5c(cnn5-c5ccccc5)CC4(C)C3C(O)CC21C (centres undefined) | 1.85 | 4.34 | 0.439 | 2.41 | 2.63 | 9.39 | 1.69 | 4.82 | – | > 100 | 1.45 | 2.87 | 1.34 | 13.5 | 2.16 | 11.2 | 1.64 | 11.4 | 1.32 | 2.78 |
| CCN1C(=O)N(CC)C2C1NN=c1s/c(=C\c3ccccc3)c(=O)n12 (centres undefined) | 0.416 | > 100 | 0.106 | 0.554 | 0.519 | > 100 | 0.194 | > 100 | 0.232 | > 100 | 0.147 | 6.11 | 0.305 | > 100 | 27.6 | > 100 | 0.771 | > 100 | 0.0705 | > 100 |
| COc1cc(/C=C/C(=O)c2ccc(Nc3nc(Nc4ccccc4)nc(Nc4ccc(Cl)cc4)n3)cc2)cc(OC)c1OC | 18.5 | > 32.5 | 6.84 | 16.2 | 3.03 | > 32.5 | 7.19 | > 32.5 | 4.12 | > 32.5 | 4.76 | 30.6 | > 32.5 | > 32.5 | 7.66 | > 32.5 | 23.8 | > 32.5 | 8.83 | > 32.5 |
| CS[C@@]1(C(=O)Nc2ccc3[nH]nc(-c4ccc(OC(C)C)nc4)c3c2)CCN(CC(=O)N2CC=C(c3ccc(-c4ncn(C)n4)cc3)CC2)C1 | 0.38 | > 100 | > 100 | > 100 | 27.9 | > 100 | 0.204 | 8.28 | 12.5 | > 100 | 1.03 | > 89.9 | 1.6 | > 100 | > 100 | > 100 | > 100 | > 100 | 0.929 | > 100 |
| CCS/C(Nc1ccccc1)=C(\C#N)C(=O)N/N=C/c1ccc(Cl)cc1Cl | 4.75 | > 100 | 2.89 | 20.6 | 4.03 | > 100 | 5.88 | > 100 | 3.07 | > 100 | 2.28 | 8.53 | 4.63 | > 100 | 4 | > 100 | 6.58 | > 100 | 4.04 | > 100 |
| CC(=O)N[C@@H](Cc1ccc(OP(=O)(O)O)cc1)C(=O)N[C@H]1CCC(=O)N2CCC[C@@H](C(=O)NCc3ccc(O)cc3)N2C1=O | > 25 | > 25 | > 25 | > 25 | > 25 | > 25 | > 25 | > 25 | > 25 | > 25 | > 25 | > 25 | > 25 | > 25 | > 25 | > 25 | > 25 | > 25 | > 25 | > 25 |
| CCOc1cc(/C=N\NC(=O)N/N=C/c2ccc(O)c(OCC)c2)ccc1O | 6.45 | > 100 | 1.42 | > 100 | 6.49 | > 100 | 2.45 | > 100 | 2.51 | > 100 | 1.05 | 18 | 6.95 | > 100 | > 100 | > 100 | 5.69 | > 100 | 1.01 | > 100 |
| O=C(Nc1ccc(S(=O)(=O)NC2CCCCCC2)cc1)C(c1ccccc1)S(=O)(=O)c1ccc(F)cc1 (centres undefined) | 0.35 | 1.94 | 0.389 | 1.88 | 0.717 | 4.83 | 0.112 | 0.422 | 0.577 | > 100 | 0.404 | 1.72 | 0.854 | 2.9 | 0.39 | 3.43 | 0.933 | 6.11 | 0.321 | 1.96 |
| CCc1ccccc1-n1c(N)c(C#N)c(-c2ccc(OC)c(OC)c2)c(C#N)c1=O | 17.1 | 35.8 | 15 | 28.3 | 27.2 | > 100 | 23.6 | 92.2 | > 100 | > 100 | 32.7 | > 100 | 34.4 | > 100 | 17.1 | 41.8 | 16.2 | 31.6 | 16.9 | 34.6 |
| C[C@@H](Oc1cc(-c2cnn(C3CC4(CCCNC4)C3)c2)cnc1N)c1c(Cl)ccc(F)c1Cl (some centres undefined) | 1.29 | 3.11 | 1.59 | 3.02 | 1.61 | 3.42 | 1.17 | 2.5 | 0.936 | 4.77 | 1.5 | 2.87 | 1.22 | 4.12 | 2.29 | 9.76 | 1.81 | 6.02 | 0.0485 | 1.32 |
| ClC1=C(Cl)C(Cl)=C(Cl)C1=Cc1ccc(Cl)cc1 | 0.302 | 1.08 | 0.733 | 2.18 | 0.484 | 2.04 | 0.233 | 0.71 | 0.33 | 2.47 | 1.17 | 2.41 | 0.918 | 2.54 | 0.389 | 1.86 | 0.419 | 1.1 | 0.844 | 2.38 |
| C=C1C(=O)OC2CC3(C)OC3C3OC3C3=CC(OC3=O)C12 (centres undefined) | 8.33 | 22.7 | 4.43 | 16.7 | 1.17 | 4.45 | 4.18 | 12.1 | 1.05 | 3.2 | 14.9 | 30.3 | 21.3 | 46.8 | 8.82 | 28.5 | 19 | 38 | 18.7 | 37.7 |
| CS(=O)(=O)c1nc(Cl)c(Cl)c(C#N)c1Cl | – | 3.24 | – | 11.3 | – | 4.83 | – | 4.3 | – | > 100 | – | 15.5 | – | 40.4 | – | 24.6 | – | 21.9 | – | 17.6 |
| CCOC(=O)C(Cc1ccc(OC)cc1)C(=O)OCC | 7.87 | 27.3 | 2.92 | 9.43 | 2.8 | 12.4 | 3.56 | 13.7 | 3.18 | 28.2 | 3.65 | 15.3 | 7.01 | 33.7 | 12.4 | 30.3 | 3.73 | 15.2 | 3.01 | 9.85 |
| Cc1cccnc1CNC1CC(NCc2ncccc2C)CC(NCc2ncccc2C)C1 (centres undefined) | 1.6 | 3.56 | 2.92 | 9.38 | 1.94 | 3.89 | 1.92 | 3.96 | 2.18 | 4.71 | 1.92 | 3.83 | 2.01 | 4.21 | 1.65 | 3.17 | 1.99 | 4.05 | 4.51 | 20.4 |
| CCCCCCC1N=C(N)N=C(N)N1c1ccc(Cl)cc1 (centres undefined) | 11.2 | 25.9 | 4.16 | 18 | 20 | 70.5 | 3.87 | 14.7 | 4.67 | 81.3 | 3.47 | 14.7 | 4.83 | > 100 | 13.2 | 54.2 | 3.78 | 21.7 | 10.4 | 22.9 |
